Experimental data: ChEMBL document CHEMBL1147745, “Targeting FtsZ for antituberculosis drug discovery: noncytotoxic taxanes as novel antituberculosis agents” (J Med Chem, 2006)
In brackets after ≈: the same amount, converted by molar mass. Activity calls are given as the source filed them. The calls are words filed in the database; no cut-off is given here.

Tests used:
A549 = assay: Cytotoxicity against human A549 cell line; assay type: functional, cell-based
MCF7 = assay: Cytotoxicity against human MCF7 cell line; assay type: functional, cell-based
[1] = tested on: Mycobacterium tuberculosis; assay: Antimicrobial activity against Mycobacterium tuberculosis IMCJ946.K2; assay type: functional
[2] = tested on: Mycobacterium tuberculosis; assay: Antimicrobial activity against Mycobacterium tuberculosis H37Rv; assay type: functional
[3] = molecular target: T1, Cell division protein FtsZ (Mycobacterium tuberculosis) (UniProt P9WN95); assay: FtsZ inactivation in MTB cells at MIC; assay type: cell-based
T1 sequence (whole entry): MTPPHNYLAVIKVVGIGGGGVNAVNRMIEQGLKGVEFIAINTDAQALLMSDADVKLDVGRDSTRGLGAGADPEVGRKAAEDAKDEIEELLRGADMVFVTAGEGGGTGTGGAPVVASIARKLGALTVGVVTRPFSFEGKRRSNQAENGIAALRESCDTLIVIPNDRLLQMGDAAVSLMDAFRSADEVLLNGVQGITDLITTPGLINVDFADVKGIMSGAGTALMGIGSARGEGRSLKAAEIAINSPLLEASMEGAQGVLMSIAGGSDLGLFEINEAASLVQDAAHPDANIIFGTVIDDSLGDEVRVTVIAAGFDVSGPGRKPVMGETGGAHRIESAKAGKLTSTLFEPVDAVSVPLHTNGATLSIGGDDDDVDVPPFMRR

Compound `CCN(CC)CCC(=O)O[C@H]1C(=O)[C@@]2(C)[C@H]([C@H](OC(=O)c3ccccc3)[C@]3(O)C[C@H](OC(=O)/C=C/c4ccc5ccccc5c4)C(C)=C1C3(C)C)[C@]1(OC(C)=O)CO[C@@H]1C[C@@H]2O` has an IC50 (A549) of 9.6 µM, an IC50 (MCF7) of 3.9 µM and an MIC99 [1] of 5 µM (≈ 4.26 µg/mL). It also gave an MIC99 [2] of 10 µM (≈ 8.52 µg/mL).

`COc1ccc(C(=O)O[C@H]2[C@@H]3[C@]4(OC(C)=O)CO[C@@H]4C[C@H](O)[C@@]3(C)C(=O)[C@H](O)C3=C(C)[C@@H](OC(=O)/C=C/c4ccc5ccccc5c4)C[C@]2(O)C3(C)C)cc1` was tested, and the IC50 (A549) was 14 µM, the IC50 (MCF7) was 7.6 µM and the MIC99 [1] was 2.5 µM (≈ 1.89 µg/mL). For the same compound, the MIC99 [2] was 5 µM (≈ 3.77 µg/mL).

With `CC(=O)O[C@@]1([C@@H]2/C(C)=C(/O)C(=O)C3=C(C)[C@@H](OC(=O)/C=C/c4ccc5ccccc5c4)C[C@@](O)([C@H]2OC(=O)c2ccccc2)C3(C)C)CO[C@@H]1CCO` the IC50 (A549) was greater than 80 µM, the Activity [3] was “Active” and the IC50 (MCF7) was greater than 80 µM. For the same compound, the MIC99 [1] was 1.25 µM (≈ 0.906 µg/mL) and the MIC99 [2] was 2.5 µM (≈ 1.81 µg/mL).

For `CC(=O)O[C@@]12CO[C@@H]1C[C@H](O)[C@@]1(C)C(=O)[C@H](OC(=O)N(C)C)C3=C(C)[C@@H](OC(=O)/C=C/c4ccc5ccccc5c4)C[C@@](O)([C@@H](OC(=O)c4ccccc4)[C@H]21)C3(C)C`, the Activity [3] was “Active”.

For `CC(=O)O[C@@]12CO[C@@H]1C[C@H](O)[C@@]1(C)C(=O)[C@H](O)C3=C(C)[C@@H](OC(=O)/C=C/c4ccc(Sc5ccccc5)cc4)C[C@@](O)([C@@H](OC(=O)c4ccccc4)[C@H]21)C3(C)C`, the IC50 (A549) was 4.5 µM, the IC50 (MCF7) was 3.4 µM and the MIC99 [1] was 2.5 µM (≈ 1.96 µg/mL). It also gave an MIC99 [2] of 2.5 µM (≈ 1.96 µg/mL).

`CC(=O)O[C@@]12CO[C@@H]1C[C@H](O)[C@@]1(C)C(=O)[C@H](O)C3=C(C)[C@@H](OC(=O)/C=C/c4ccc5ccccc5c4)C[C@@](O)([C@@H](OC(=O)c4ccccc4)[C@H]21)C3(C)C` was tested, and the IC50 (A549) was 15.7 µM, the IC50 (MCF7) was 4.5 µM and the MIC99 [1] was 2.5 µM (≈ 1.81 µg/mL). It also gave an MIC99 [2] of 5 µM (≈ 3.62 µg/mL).

`CCN(CC)CCC(=O)O[C@H]1C[C@H]2OC[C@@]2(OC(C)=O)[C@H]2[C@H](OC(=O)c3ccccc3)[C@]3(O)C[C@H](OC(=O)/C=C/c4ccc5ccccc5c4)C(C)=C([C@@H](OC(C)=O)C(=O)[C@]12C)C3(C)C` gave an IC50 (A549) of 17 µM, an IC50 (MCF7) of 9.4 µM and an MIC99 [1] of 20 µM (≈ 17.9 µg/mL). For the same compound, the MIC99 [2] was 10 µM (≈ 8.94 µg/mL).

In the case of `CC(=O)O[C@@]1([C@@H]2/C(C)=C(/O)C(=O)C3=C(C)[C@@H](OC(=O)/C=C/c4ccc(Sc5ccccc5)cc4)C[C@@](O)([C@H]2OC(=O)c2ccccc2)C3(C)C)CO[C@@H]1CCO`, the IC50 (A549) is reported as greater than 80 µM, the IC50 (MCF7) is reported as greater than 80 µM and the MIC99 [1] is reported as 1.25 µM (≈ 0.979 µg/mL). It also gave an MIC99 [2] of 2.5 µM (≈ 1.96 µg/mL).

With `COc1ccc2cc(/C=C/C(=O)O[C@H]3C[C@@]4(O)[C@@H](OC(=O)c5ccccc5)[C@H]([C@]5(OC(C)=O)CO[C@@H]5CCO)/C(C)=C(/O)C(=O)C(=C3C)C4(C)C)ccc2c1` the IC50 (A549) was greater than 80 µM, the IC50 (MCF7) was greater than 80 µM and the MIC99 [1] was 2.5 µM (≈ 1.89 µg/mL). It also gave an MIC99 [2] of 2.5 µM (≈ 1.89 µg/mL).

`CC(=O)O[C@@]12CO[C@@H]1C[C@H](OC(=O)CN(C)C)[C@@]1(C)C(=O)[C@H](O)C3=C(C)[C@@H](OC(=O)/C=C/c4ccc5ccccc5c4)C[C@@](O)([C@@H](OC(=O)c4ccccc4)[C@H]21)C3(C)C` showed an IC50 (A549) of 4.3 µM, an IC50 (MCF7) greater than 20 µM and an MIC99 [1] of 5 µM (≈ 4.05 µg/mL). It also gave an MIC99 [2] of 20 µM (≈ 16.2 µg/mL).

With `CCCCCC(=O)O[C@H]1C(=O)[C@@]2(C)[C@H]([C@H](OC(=O)c3ccccc3)[C@]3(O)C[C@H](OC(=O)[C@H](O)[C@@H](NC(=O)c4ccccc4)c4ccccc4)C(C)=C1C3(C)C)[C@]1(OC(C)=O)CO[C@@H]1C[C@@H]2O` the IC50 (A549) was 0.65 µM, the IC50 (MCF7) was 0.65 µM and the MIC99 [1] was 1.25 µM (≈ 1.14 µg/mL). It also gave an MIC99 [2] of 5 µM (≈ 4.55 µg/mL).

With `CC(=O)O[C@H]1C(=O)[C@@]2(C)[C@H]([C@H](OC(=O)c3ccccc3)[C@]3(O)C[C@H](OC(=O)[C@H](O)[C@@H](NC(=O)c4ccccc4)c4ccccc4)C(C)=C1C3(C)C)[C@]1(OC(C)=O)CO[C@@H]1C[C@@H]2O` [PACLITAXEL] the IC50 (A549) was 0.028 µM, the IC50 (MCF7) was 0.019 µM and the MIC99 [1] was 40 µM (≈ 34.2 µg/mL). For the same compound, the MIC99 [2] was 40 µM (≈ 34.2 µg/mL).

`CC(=O)O[C@@]12CO[C@@H]1C[C@H](O)[C@@]1(C)C(=O)[C@H](O)C3=C(C)[C@@H](OC(=O)/C=C/c4cccc5ccccc45)C[C@@](O)([C@@H](OC(=O)c4ccccc4)[C@H]21)C3(C)C` was tested, and the IC50 (A549) was 80 µM, the IC50 (MCF7) was 5.4 µM and the MIC99 [1] was 5 µM (≈ 3.62 µg/mL). The MIC99 [2] was 5 µM (≈ 3.62 µg/mL).

`CC(=O)O[C@@]12CO[C@@H]1C[C@H](O)[C@@]1(C)C(=O)[C@H](OC(=O)/C=C/c3ccc4ccccc4c3)C3=C(C)[C@@H](O)C[C@@](O)([C@@H](OC(=O)c4ccccc4)[C@H]21)C3(C)C` showed an IC50 (MCF7) of 14 µM, an MIC99 [1] of 10 µM (≈ 7.25 µg/mL) and an MIC99 [2] of 20 µM (≈ 14.5 µg/mL).

Work on `CC(=O)O[C@@]12CO[C@@H]1C[C@H](O)[C@@]1(C)C(=O)[C@H](O)C3=C(C)[C@@H](OC(=O)/C=C/c4ccc(Oc5ccccc5)cc4)C[C@@](O)([C@@H](OC(=O)c4ccccc4)[C@H]21)C3(C)C` yielded an IC50 (A549) of 12.5 µM, an IC50 (MCF7) of 9.3 µM and an MIC99 [1] of 10 µM (≈ 7.67 µg/mL). It also gave an MIC99 [2] of 10 µM (≈ 7.67 µg/mL).

`COc1ccc2cc(/C=C/C(=O)O[C@H]3C[C@@]4(O)[C@@H](OC(=O)c5ccccc5)[C@@H]5[C@]6(OC(C)=O)CO[C@@H]6C[C@H](O)[C@@]5(C)C(=O)[C@H](O)C(=C3C)C4(C)C)ccc2c1` showed an IC50 (A549) of 5 µM, an IC50 (MCF7) of 5.3 µM and an MIC99 [1] of 5 µM (≈ 3.77 µg/mL). For the same compound, the MIC99 [2] was 5 µM (≈ 3.77 µg/mL).

Work on `CC(=O)O[C@@]12CO[C@@H]1C[C@H](O)[C@@]1(C)C(=O)[C@H](OC(=O)CN(C)C)C3=C(C)[C@@H](OC(=O)/C=C/c4ccc5ccccc5c4)C[C@@](O)([C@@H](OC(=O)c4ccccc4)[C@H]21)C3(C)C` yielded an IC50 (A549) of 10.8 µM, an IC50 (MCF7) of 7 µM and an MIC99 [1] of 10 µM (≈ 8.1 µg/mL). It also gave an MIC99 [2] of 10 µM (≈ 8.1 µg/mL).

`CC(=O)O[C@@]1([C@@H]2/C(C)=C(/O)C(=O)C3=C(C)[C@@H](OC(=O)/C=C/c4ccc(Oc5ccccc5)cc4)C[C@@](O)([C@H]2OC(=O)c2ccccc2)C3(C)C)CO[C@@H]1CCO` gave an IC50 (A549) greater than 80 µM, an IC50 (MCF7) greater than 80 µM and an MIC99 [1] of 1.25 µM (≈ 0.959 µg/mL). For the same compound, the MIC99 [2] was 2.5 µM (≈ 1.92 µg/mL).
